# Assay results taken from patent US8959984B2, “Proteome-wide quantification of small molecule binding to cellular target proteins” (priority 2007, dated 2015).
# Read-outs that look alike come from different tables or passages of the source.
# Experiments:
# MAP3K5 = biological target: T1, MAP3K5 (Homo sapiens, UniProt Q99683); test: binding to immobilized V16742 (IVA1/IVA2, HeLa lysate, MS)
# T1 construct: endogenous in cells; host or cells: HeLa S3
# T1 sequence (Q99683 1-1374): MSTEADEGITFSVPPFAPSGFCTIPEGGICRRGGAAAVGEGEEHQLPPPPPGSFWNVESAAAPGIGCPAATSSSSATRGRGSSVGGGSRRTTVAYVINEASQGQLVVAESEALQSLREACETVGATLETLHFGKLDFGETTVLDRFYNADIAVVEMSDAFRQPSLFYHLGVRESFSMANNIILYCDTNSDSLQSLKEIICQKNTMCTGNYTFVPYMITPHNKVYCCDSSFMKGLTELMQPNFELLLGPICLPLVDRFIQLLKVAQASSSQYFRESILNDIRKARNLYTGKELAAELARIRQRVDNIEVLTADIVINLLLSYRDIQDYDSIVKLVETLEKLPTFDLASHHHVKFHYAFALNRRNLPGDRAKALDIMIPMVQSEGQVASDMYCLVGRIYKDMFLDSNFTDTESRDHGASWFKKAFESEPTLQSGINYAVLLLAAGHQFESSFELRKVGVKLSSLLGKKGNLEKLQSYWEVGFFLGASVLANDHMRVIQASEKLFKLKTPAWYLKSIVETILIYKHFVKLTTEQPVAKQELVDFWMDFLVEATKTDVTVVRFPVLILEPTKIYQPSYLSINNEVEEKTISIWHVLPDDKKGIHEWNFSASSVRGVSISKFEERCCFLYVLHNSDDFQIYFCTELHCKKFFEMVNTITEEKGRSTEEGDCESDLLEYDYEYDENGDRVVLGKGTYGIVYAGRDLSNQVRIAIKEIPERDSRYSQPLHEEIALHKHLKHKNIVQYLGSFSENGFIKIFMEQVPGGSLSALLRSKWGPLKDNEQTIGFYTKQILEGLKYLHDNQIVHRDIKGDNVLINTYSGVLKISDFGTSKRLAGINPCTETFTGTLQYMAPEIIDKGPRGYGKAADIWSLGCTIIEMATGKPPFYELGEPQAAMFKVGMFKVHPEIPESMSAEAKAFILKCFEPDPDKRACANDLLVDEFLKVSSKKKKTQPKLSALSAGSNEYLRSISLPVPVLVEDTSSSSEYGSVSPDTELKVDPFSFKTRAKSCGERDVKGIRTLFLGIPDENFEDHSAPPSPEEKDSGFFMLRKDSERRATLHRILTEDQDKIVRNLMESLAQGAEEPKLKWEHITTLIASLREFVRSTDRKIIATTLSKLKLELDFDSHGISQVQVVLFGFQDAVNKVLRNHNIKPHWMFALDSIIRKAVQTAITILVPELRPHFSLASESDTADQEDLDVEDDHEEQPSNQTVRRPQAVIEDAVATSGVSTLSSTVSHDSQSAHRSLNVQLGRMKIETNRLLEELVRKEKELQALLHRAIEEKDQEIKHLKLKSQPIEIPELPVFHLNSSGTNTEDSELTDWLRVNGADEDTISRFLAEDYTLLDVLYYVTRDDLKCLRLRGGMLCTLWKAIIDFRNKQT
# FN3KRP (IPI00099986) = biological target: T2, FN3KRP (IPI00099986) (Homo sapiens, UniProt Q9HA64); test: binding to VI16742 beads (HeLa lysate, SILAC MS)
# T2 construct: endogenous in cells; host or cells: HeLa S3
# T2 sequence (Q9HA64 1-309): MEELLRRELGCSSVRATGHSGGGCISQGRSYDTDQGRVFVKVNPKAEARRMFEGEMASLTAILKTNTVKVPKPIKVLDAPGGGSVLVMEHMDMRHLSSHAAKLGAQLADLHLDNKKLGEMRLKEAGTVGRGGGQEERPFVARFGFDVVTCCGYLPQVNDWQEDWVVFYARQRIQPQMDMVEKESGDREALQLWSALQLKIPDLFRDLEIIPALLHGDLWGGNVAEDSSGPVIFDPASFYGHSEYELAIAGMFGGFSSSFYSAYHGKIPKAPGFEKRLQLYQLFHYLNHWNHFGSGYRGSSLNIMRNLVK
# Text: (§1) In an alternative implementation of the chemical proteomic approach according to the invention, the broadly-selective pyrido[2,3-d]pyrimidine-based kinase inhibitor VI16742 has been used for affinity capture (FIG. 10a). […] As shown by gene ontology analysis, the corresponding molecular functions were highly over-represented in proteins specifically retained by the inhibitor resin (FIG. 10b).
# [1] = biological target: T3, PHKg2 (PHKG2, IPI00012891) (Homo sapiens, UniProt P15735); test: binding to VI16742 beads (HeLa lysate, SILAC MS)
# T3 construct: endogenous in cells; host or cells: HeLa S3
# T3 sequence (P15735 1-406): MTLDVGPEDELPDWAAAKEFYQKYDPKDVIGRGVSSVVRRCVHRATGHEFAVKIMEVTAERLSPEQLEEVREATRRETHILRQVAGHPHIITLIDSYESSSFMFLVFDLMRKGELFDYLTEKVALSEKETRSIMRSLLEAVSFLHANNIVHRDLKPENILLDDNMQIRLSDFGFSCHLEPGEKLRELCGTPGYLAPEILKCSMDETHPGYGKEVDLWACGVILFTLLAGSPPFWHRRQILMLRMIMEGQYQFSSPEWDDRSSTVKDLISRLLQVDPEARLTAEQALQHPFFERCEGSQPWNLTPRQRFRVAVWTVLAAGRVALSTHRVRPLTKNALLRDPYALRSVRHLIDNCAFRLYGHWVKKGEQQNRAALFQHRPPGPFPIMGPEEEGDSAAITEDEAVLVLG
# Text: as §1
# [2] = biological target: T4, PKACa (PRKACA, IPI00396630) (Homo sapiens, UniProt P17612); test: binding to VI16742 beads (HeLa lysate, SILAC MS)
# T4 construct: endogenous in cells; host or cells: HeLa S3
# Text: as §1
# CK1d = CK1d (Homo sapiens, UniProt P48730); test: binding to immobilized V16742 (IVA1/IVA2, HeLa lysate, MS)
# [3] = control beads vs first incubation
# Sequence of CK1d (P48730 whole entry): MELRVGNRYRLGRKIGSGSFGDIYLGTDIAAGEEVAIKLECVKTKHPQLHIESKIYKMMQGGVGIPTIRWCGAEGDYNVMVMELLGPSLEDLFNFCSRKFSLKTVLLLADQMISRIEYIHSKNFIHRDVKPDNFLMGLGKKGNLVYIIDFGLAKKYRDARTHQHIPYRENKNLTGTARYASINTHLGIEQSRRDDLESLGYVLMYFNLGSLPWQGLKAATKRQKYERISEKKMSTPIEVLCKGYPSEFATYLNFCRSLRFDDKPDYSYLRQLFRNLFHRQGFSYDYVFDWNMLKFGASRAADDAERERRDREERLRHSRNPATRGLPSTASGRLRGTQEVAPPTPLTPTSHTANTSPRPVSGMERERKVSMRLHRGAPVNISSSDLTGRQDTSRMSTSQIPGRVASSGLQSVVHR
smiles,measurement,setting,value
CC(C)n1c(=O)ccc2cnc(Nc3ccc(OCCN)cc3)nc21 [V16742],Percent bound at various 16742 conc,"MAP3K5; Experiment 1, 1.87 μM 16742",7.42%
same,Percent bound at various 16742 conc,"MAP3K5; Experiment 1, 8.74 μM 16742",10.05%
same,Percent bound at various 16742 conc,"MAP3K5; Experiment 1, 52 μM 16742",56.90%
same,Kd,"MAP3K5; Experiment 1, read-out: Kd",44.5 µM
same,Percent bound at various 16742 conc,"MAP3K5; Experiment 2, 1.87 μM 16742",1.27%
same,Percent bound at various 16742 conc,"MAP3K5; Experiment 2, 8.74 μM 16742",1.00%
same,Percent bound at various 16742 conc,"MAP3K5; Experiment 2, 52 μM 16742",17.64%
same,Kd,"MAP3K5; Experiment 2, read-out: Kd",252 µM
same,Kd,"MAP3K5; average of two experiments, read-out: Kd Avg",148 µM
same,r (3 MG/1 MG LYSATE),FN3KRP (IPI00099986); 3 mg vs 1 mg lysate,2.02
same,r (5 h/2.5 h INC. TIME),FN3KRP (IPI00099986); 5 h vs 2.5 h incubation time,0.95
same,rAVERAGE (CTRL/1 INC),FN3KRP (IPI00099986); [3],0.07
same,Ki,FN3KRP (IPI00099986); immobilized VI16742,117 µM
same,rAVERAGE (2 INC/1 INC),FN3KRP (IPI00099986); second vs first incubation,0.69
same,r (3 MG/1 MG LYSATE),[1]; 3 mg vs 1 mg lysate,2.14
same,r (5 h/2.5 h INC. TIME),[1]; 5 h vs 2.5 h incubation time,1.33
same,rAVERAGE (CTRL/1 INC),[1]; [3],0.10
same,Ki,[1]; immobilized VI16742,296 µM
same,rAVERAGE (2 INC/1 INC),[1]; second vs first incubation,0.85
same,r (3 MG/1 MG LYSATE),[2]; 3 mg vs 1 mg lysate,2.18
same,r (5 h/2.5 h INC. TIME),[2]; 5 h vs 2.5 h incubation time,1.76
same,rAVERAGE (CTRL/1 INC),[2]; [3],0.04
same,Ki,[2]; immobilized VI16742,305 µM
same,rAVERAGE (2 INC/1 INC),[2]; second vs first incubation,0.85
CC(C)n1c(=O)ccc2cnc(Nc3ccc(OCCN)cc3)nc21 [compound 16742],Percent bound at 1.87 μM 16742 conc,CK1d; EXPERIMENT 1,16.07%
same,Percent bound at 8.74 μM 16742 conc,CK1d; EXPERIMENT 1,57.03%
same,Percent bound at 52 μM 16742 conc,CK1d; EXPERIMENT 1,87.27%
same,Kd,"CK1d; EXPERIMENT 1, read-out: Kd",7.38 µM
same,Percent bound at 1.87 μM 16742 conc,CK1d; EXPERIMENT 2,19.73%
same,Percent bound at 8.74 μM 16742 conc,CK1d; EXPERIMENT 2,70.68%
same,Percent bound at 52 μM 16742 conc,CK1d; EXPERIMENT 2,87.40%
same,Kd,"CK1d; EXPERIMENT 2, read-out: Kd",5.07 µM
same,Kd,CK1d; read-out: Kd Avg,6.23 µM
